# Experimental data taken from ChEMBL document CHEMBL1201862, “PubChem BioAssay data set” (2004).
# Calls of active or inactive are those of the source.
# Key:
# [1] = biological target: T1, Corticotropin-releasing factor receptor 2/Corticotropin-releasing factor-binding protein (Homo sapiens, UniProt P24387+Q13324); assay: activators of CRF receptor 2 with binding protein – uHTS hits, confirmation (AID 602473); format: functional; conditions: read-out: EC50_Mean
# T1 sequence (Q13324 whole entry): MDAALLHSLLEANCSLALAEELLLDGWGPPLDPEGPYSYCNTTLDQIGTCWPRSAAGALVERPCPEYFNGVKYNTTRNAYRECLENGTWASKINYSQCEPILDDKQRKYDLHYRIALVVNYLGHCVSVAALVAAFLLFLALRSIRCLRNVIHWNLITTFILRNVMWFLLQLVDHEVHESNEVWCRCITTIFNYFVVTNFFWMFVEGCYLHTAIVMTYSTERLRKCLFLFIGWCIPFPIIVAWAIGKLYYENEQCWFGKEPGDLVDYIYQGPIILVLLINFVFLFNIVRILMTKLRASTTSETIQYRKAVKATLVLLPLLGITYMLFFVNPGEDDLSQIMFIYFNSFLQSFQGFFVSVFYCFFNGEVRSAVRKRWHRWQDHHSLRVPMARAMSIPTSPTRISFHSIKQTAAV
# T1 sequence (P24387 whole entry): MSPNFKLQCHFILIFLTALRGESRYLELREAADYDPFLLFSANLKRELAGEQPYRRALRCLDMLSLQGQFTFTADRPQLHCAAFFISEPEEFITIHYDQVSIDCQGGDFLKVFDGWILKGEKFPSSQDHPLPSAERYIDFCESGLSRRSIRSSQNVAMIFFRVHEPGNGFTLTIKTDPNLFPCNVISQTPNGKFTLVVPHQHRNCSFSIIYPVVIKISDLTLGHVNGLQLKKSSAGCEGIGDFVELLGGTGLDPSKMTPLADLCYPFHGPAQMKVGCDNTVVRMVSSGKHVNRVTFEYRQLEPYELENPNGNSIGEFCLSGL
# [2] = biological target: T1, Corticotropin-releasing factor receptor 2/Corticotropin-releasing factor-binding protein; assay: Dose Response confirmation of uHTS hits for small molecule antagonists of the CRF-binding protein and CRF-R2 receptor complex.; format: functional; conditions: read-out: IC50_Mean
# Large T antigen = Large T antigen (Simian virus 40, UniProt P03070); format: functional, Betapolyomavirus macacae;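 further: Confirmatory-stage PubChem screen for compounds that inhibit SV40 T antigen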
# Chain of Large T antigen (P03070 whole entry): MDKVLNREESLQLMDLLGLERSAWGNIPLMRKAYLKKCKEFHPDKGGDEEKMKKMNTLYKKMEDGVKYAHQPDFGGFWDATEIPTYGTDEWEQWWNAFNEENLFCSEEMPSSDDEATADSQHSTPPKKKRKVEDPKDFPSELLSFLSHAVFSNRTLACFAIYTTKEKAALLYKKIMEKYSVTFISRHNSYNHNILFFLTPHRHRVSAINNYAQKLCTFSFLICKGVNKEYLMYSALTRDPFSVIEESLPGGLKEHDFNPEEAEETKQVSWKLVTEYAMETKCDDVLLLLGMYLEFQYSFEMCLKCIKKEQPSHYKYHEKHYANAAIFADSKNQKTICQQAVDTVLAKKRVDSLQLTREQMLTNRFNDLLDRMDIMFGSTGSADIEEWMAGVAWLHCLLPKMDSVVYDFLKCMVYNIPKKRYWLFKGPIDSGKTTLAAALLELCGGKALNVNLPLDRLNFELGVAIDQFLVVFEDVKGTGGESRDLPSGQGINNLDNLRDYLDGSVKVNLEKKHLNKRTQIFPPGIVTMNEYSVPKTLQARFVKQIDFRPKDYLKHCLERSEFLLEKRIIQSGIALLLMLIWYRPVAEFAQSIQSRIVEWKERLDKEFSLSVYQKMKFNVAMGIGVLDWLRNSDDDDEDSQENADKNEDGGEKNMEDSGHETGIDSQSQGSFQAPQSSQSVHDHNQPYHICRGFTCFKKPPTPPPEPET
# Cytochrome P450 1A2 = biological target: T2, Cytochrome P450 1A2 (Homo sapiens, UniProt P05177);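 further: PubChem cytochrome P450 panel assay, CYP1A2 panel member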
# T2 sequence (P05177 whole entry): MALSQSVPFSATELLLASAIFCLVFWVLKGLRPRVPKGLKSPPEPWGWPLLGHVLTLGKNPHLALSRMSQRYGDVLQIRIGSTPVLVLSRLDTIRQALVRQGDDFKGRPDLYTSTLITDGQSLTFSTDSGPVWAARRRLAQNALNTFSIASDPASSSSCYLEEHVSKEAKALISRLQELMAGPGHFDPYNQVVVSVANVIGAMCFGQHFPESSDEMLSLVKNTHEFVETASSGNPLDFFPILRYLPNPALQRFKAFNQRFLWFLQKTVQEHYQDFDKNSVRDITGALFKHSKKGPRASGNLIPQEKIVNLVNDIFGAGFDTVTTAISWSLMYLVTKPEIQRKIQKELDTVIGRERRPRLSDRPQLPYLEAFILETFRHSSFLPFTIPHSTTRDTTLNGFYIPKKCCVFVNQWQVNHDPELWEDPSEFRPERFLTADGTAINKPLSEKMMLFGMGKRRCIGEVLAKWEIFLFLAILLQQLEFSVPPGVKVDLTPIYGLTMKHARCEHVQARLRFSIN
# [3] = biological target: T3, Heat shock factor protein 1 (Mus musculus, UniProt P38532); assay: enhancement of HSF1-driven luciferase signal – cell-based, NIH3T3, luminescence, dose retest, confirmation (AID 435004); format: functional;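 further: stress induced by proteasome inhibitor MG132 added 30 min after compound; luciferase reporter driven by HSF1 response element in NIH3T3 cells; actives raise luminescence as potentiators of the MG132 stress response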
# T3 sequence (P38532 whole entry): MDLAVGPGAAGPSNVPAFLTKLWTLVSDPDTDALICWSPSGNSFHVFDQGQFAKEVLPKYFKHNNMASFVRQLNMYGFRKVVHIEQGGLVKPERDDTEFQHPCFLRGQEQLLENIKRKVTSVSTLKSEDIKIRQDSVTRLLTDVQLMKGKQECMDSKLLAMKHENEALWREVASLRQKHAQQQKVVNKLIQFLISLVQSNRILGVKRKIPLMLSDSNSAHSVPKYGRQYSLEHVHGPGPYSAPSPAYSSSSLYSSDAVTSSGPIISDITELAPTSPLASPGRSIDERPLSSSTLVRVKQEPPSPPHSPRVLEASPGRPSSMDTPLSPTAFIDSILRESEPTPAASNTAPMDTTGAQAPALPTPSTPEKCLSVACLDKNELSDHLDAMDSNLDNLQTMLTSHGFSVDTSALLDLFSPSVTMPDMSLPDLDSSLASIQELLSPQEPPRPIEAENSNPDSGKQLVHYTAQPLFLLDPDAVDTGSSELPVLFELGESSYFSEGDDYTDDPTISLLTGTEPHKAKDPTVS
# [4] = non-specific 3'UTR reporter inhibition in Clone20-Shn3RL – cell-based, Renilla luciferase, cherry-picked, counter-screen for Shn3 inhibitor project, dose response (AID 624133); format: functional
# [5] = reduction of Shn3 3'UTR-driven luciferase in osteoblasts – cell-based, Clone20 osteoblasts, firefly luciferase, cherry-picked, dose response (AID 624132); format: functional;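 further: firefly luciferase luminescence from reporter carrying the Shn3 3'UTR in osteoblasts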
# Cytochrome P450 2C9 = Cytochrome P450 2C9 (Homo sapiens, UniProt P11712)
# Chain of Cytochrome P450 2C9 (P11712 whole entry): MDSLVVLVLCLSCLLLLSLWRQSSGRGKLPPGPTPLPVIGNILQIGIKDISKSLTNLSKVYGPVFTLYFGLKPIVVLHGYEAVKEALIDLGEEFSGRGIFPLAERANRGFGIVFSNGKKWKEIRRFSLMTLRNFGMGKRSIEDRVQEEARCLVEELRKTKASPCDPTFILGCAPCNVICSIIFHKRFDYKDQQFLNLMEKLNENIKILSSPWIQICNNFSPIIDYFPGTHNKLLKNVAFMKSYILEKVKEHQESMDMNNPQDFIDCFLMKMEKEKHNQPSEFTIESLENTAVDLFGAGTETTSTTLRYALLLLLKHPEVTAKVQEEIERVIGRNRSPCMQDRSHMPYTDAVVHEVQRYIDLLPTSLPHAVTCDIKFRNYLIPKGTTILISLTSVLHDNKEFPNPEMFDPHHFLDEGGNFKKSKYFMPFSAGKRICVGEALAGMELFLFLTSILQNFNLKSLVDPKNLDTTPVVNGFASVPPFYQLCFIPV
# Cytochrome P450 3A4 = Cytochrome P450 3A4 (Homo sapiens, UniProt P08684);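 further: CYP3A4 tested as one member of a cytochrome P450 panel screen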
# Chain of Cytochrome P450 3A4 (P08684 whole entry): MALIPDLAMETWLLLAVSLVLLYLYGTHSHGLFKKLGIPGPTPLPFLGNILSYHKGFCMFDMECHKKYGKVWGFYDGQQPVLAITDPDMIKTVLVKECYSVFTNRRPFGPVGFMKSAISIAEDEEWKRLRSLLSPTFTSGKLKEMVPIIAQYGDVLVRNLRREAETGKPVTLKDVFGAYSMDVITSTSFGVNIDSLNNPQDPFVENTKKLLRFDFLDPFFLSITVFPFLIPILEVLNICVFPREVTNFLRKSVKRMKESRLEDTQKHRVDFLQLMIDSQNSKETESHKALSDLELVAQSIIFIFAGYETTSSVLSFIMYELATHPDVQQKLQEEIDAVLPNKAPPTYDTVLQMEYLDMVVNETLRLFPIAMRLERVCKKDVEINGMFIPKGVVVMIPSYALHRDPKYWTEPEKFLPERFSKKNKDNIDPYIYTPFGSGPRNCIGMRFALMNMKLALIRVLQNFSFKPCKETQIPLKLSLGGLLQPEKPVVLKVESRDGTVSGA
# Cytochrome P450 2C19 = Cytochrome P450 2C19 (Homo sapiens, UniProt P33261); assay: Cytochrome panel assay with activity outcomes. Panel member name: p450-cyp2c19 Compounds with AC50 equal or less than 10 uM are considered active; format: functional; conditions: read-out: AC50
# Chain of Cytochrome P450 2C19 (P33261 whole entry): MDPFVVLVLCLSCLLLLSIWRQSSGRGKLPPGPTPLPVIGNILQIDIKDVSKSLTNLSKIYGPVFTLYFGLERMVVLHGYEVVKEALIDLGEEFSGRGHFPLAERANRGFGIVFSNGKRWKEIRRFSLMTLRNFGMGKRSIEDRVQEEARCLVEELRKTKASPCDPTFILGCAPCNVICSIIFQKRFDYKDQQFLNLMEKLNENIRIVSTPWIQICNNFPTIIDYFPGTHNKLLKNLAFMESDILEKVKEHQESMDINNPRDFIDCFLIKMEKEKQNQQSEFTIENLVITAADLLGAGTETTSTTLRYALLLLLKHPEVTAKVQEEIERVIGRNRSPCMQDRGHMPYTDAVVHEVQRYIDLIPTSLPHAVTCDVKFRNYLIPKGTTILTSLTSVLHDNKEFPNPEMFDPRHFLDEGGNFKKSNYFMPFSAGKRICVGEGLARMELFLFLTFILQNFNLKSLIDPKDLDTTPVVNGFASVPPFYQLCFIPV
# [6] = biological target: T4, Rac GTPase-activating protein 1 (Homo sapiens, UniProt Q9H0H5); assay: blockers of MgcRacGAP-driven Rac1 GTP hydrolysis – biochemical, ADP Hunter fluorescence, primary and confirmatory, confirmation (AID 624330); format: functional
# T4 sequence (Q9H0H5 whole entry): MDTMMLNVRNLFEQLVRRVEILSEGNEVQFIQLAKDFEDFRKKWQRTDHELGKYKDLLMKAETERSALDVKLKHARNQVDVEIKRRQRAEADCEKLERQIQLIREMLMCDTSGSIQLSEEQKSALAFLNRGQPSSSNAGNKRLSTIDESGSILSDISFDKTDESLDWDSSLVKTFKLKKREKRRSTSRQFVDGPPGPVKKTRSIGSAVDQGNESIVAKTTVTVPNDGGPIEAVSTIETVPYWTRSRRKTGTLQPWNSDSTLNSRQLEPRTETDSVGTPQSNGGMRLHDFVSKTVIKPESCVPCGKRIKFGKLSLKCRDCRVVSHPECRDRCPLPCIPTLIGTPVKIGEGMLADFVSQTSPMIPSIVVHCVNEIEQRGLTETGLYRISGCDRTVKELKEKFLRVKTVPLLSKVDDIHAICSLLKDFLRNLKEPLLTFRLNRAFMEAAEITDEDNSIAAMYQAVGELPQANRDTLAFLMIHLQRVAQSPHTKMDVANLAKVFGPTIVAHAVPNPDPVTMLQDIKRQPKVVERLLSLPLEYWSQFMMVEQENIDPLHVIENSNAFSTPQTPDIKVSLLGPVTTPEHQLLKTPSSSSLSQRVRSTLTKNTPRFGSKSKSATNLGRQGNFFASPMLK
# Protein RecA = biological target: T5, Protein RecA (Mycobacterium tuberculosis, UniProt P9WHJ3); assay: Fluorescence Cell-Free Homogeneous Dose Retest to Identify Inhibitors of RecA-Intein Splicing Activity. [Related pubchem assays (depositor defined):AID2097, AID2223, AID489010, AID492950]; format: functional
# T5 sequence (P9WHJ3 whole entry): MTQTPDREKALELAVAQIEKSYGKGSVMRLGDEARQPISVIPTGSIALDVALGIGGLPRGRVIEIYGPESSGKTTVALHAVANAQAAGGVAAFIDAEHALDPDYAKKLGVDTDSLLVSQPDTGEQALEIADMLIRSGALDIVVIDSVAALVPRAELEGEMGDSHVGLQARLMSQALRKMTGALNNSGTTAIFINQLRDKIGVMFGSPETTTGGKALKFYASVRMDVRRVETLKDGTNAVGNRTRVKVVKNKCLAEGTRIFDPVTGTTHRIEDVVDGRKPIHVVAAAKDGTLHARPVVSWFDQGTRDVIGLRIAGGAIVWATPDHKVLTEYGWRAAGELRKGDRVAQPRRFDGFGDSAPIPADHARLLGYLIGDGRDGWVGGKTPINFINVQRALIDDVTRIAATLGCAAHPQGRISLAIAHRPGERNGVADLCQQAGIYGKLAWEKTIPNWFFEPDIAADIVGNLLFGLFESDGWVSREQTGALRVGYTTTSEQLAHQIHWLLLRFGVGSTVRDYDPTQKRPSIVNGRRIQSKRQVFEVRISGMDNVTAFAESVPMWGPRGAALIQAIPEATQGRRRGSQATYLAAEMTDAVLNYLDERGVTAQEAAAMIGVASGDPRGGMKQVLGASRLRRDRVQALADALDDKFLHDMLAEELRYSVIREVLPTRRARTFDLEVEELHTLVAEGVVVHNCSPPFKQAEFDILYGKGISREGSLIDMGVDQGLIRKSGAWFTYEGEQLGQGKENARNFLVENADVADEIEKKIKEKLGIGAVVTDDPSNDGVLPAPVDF
# [7] = biological target: T6, Replicative DNA helicase DnaB (Mycobacterium tuberculosis, UniProt P9WMR3); assay: DnaB intein splicing inhibitors, dose response, biochemical, cell-free fluorescence (AID 449749); format: functional
# T6 sequence (P9WMR3 whole entry): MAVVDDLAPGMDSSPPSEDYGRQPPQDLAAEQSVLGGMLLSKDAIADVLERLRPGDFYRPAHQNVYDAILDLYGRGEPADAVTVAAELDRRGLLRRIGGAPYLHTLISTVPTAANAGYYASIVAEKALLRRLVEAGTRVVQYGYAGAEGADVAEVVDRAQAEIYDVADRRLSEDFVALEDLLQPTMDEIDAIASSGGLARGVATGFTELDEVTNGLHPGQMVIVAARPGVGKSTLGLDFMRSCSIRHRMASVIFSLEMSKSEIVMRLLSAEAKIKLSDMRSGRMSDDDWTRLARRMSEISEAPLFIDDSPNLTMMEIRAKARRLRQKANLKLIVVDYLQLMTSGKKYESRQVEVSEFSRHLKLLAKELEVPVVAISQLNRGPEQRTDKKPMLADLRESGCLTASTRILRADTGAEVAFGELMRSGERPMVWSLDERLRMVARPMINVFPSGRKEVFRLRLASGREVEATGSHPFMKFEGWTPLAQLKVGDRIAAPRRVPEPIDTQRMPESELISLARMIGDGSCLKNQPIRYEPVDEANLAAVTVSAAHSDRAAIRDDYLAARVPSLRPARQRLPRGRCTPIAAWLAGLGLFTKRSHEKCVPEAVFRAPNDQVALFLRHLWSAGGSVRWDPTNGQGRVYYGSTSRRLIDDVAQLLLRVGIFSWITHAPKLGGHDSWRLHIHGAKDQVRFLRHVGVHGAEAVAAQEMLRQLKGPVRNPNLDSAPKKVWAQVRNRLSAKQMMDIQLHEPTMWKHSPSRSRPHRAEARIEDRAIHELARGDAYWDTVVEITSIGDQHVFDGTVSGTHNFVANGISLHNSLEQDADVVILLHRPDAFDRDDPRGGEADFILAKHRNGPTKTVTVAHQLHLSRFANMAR
SMILES,EC50 [1],IC50 [2],AC50 (Cytochrome P450 1A2),further results
CCc1nnc(NC(=O)CCC(=O)N2CCN(Cc3cc(Cl)ccc3OC)CC2)s1,> 53 µM (inactive),> 47.1 µM (inactive),,
COc1cccc(CNC(=O)CN(c2ccc(C(C)C)cc2)S(=O)(=O)c2c(C)noc2C)c1,> 53 µM (inactive),> 47.1 µM (inactive),,
Cc1ccc2oc(=O)c(/C=C(\O)C(C)(C)C)nc2c1,,,,IC50 (Large T antigen): 11 µM (active)
CCOC(=O)Cc1csc(NC(=O)c2c(-c3c(Cl)cccc3Cl)noc2C)n1,,,14.1 µM (inconclusive),
Cc1cc(NC(=O)c2nn(C)c(C)c2[N+](=O)[O-])no1,,,25.1 µM (inconclusive),
Fc1ccc(C2c3cccn3CCN2C(S)=Nc2cccc(F)c2)cc1 (stereo not given),> 53 µM (inactive),> 47.1 µM (inactive),,
Cc1nc2ccccc2nc(C)c1=NOCc1ccccc1Cl,> 53 µM (inactive),> 47.1 µM (inactive),,EC50 [3]: > 260 µM (inactive)
COc1ccc(S(=O)(=O)N2CCN(c3cc(-c4ccccc4)nc4ncnn34)CC2)cc1,,,,AC50 [4]: 1.6 µM (active); AC50 [5]: 3.89 µM (active)
COc1ccc(-c2nc3cnc(Nc4ccccc4)nc3n(Cc3cccs3)c2=O)cc1,,,25.1 µM (inconclusive),AC50 (Cytochrome P450 2C9): 12.6 µM (inconclusive)
CC(C)CCNC(=O)C12CN(Cc3ccccc3)CC1C(c1cccc([N+](=O)[O-])c1)=NO2 (stereo not given),,,14.1 µM (inconclusive),
COc1ccc(-c2nc3cnc(N4CCOCC4)nc3n(CCC#N)c2=O)cc1,,,3.16 µM (inconclusive),
N#Cc1ccc(S(=O)(=O)N2CCN(C(=O)[C@@H]3CCCN3C(=O)c3cccs3)CC2)cc1,> 53 µM (inactive),> 47.1 µM (inactive),,
CCN(CC)c1ccc(NC(=O)CSc2nnc3nc(C)cc(C)n23)cc1,,,,IC50 (Large T antigen): 19.8 µM (active); AC50 (Cytochrome P450 3A4): 39.8 µM (inconclusive); AC50 (Cytochrome P450 2C19): 17.8 µM (inconclusive)
C[C@@H](CCC(=O)O)C(=O)O,,,6.31 µM (inconclusive),
O=C(NCCO)c1nc(C(=O)c2ccc(Cl)cc2)c2ccccc2n1,> 53 µM (inactive),> 47.1 µM (inactive),,
CCCNC(=O)c1ccc(CN2CCc3ccccc3C2)cc1,> 53 µM (inactive),> 47.1 µM (inactive),,
CC1C/C(=N\NC(=O)c2ccc([N+](=O)[O-])cc2)CC(C)(C)C1 (stereo not given),> 53 µM (inactive),> 47.1 µM (inactive),,
Cn1cccc1/C=N/N1CCN(c2ccccn2)CC1,,,,IC50 (Large T antigen): 5.17 µM (active); IC50 [6]: 27.6 µM (active)
O=C(N/N=C/c1ccc(OC(=O)c2ccco2)cc1)c1ccc[n+]([O-])c1,,,,IC50 (Large T antigen): 55.5 µM (active); EC50 (Protein RecA): 24.6 µM (active); AC50 [7]: 24.6 µM (active)
